According to patent US20250213547A1, “METHODS OF TREATING NEUROLOGICAL DISEASES” (priority 2022, published 2025):
Where two headings read alike, the source gives them in different places.

Tests used:
[1] = system: plasma 24HC; test: Single dose pharmacodynamics: plasma 24HC; format: in vivo, human
Procedure: The concentration of 24HC was measured by obtaining an 8 ml blood sample collected 30 minutes pre-dose time and 0.5, 1, 2, 4, 6, 8, 12, and 16 hours prior to dosing day, and then 30 minutes pre-dose time and at times 0.5, 1, 2, 4, 6, 8, 12, 16, 24, 48, 72, and 96 hours post-dose. Plasma 24HC levels were measured by incubating plasma in sodium hydroxide and methanol and then performing liquid-liquid extraction and HPLC-MS/MS multiple reaction monitoring. […] Assay quality control measures, parameter analyses, and statistical analyses were performed as described in example 3. […] All dosage groups returned to 24HC baseline values by 96 hours.

[2] = for Avg. CFBL 24HC / Max. CFBL 24HC: Table 34, ELEKTRA patients, steady-state; for Avg. Ch. f. BL. 24HC / Max. Red. f. BL. 24HC: Table 34A, ELEKTRA (TAK-935-2002)
From the text: Other inclusion criteria were body weight ≥10 kg, currently taking a fixed dosage of 1 to 4 antiseizure medications, and failure to remain seizure free after trying at least two antiseizure medications. Convulsive seizures include focal to bilateral tonic-clonic with impaired awareness, hemi-clonic, simultaneous bilateral clonic, and generalized tonic-clonic seizures. Drop seizures can involve the entire body, trunk, or head which leads to falling. […] Approximately 126 patients ages ≥2 and ≤17 years were enrolled in the study. The study included two main phases, a 4-6 week screening and baseline period, and a 20-week treatment period. Patients received doses twice a day in a tablet formulation. The starting dose was adjusted according to the patient's body weight (Table 17).
During the first 8 weeks of treatment patient dosing was a titrated for individual optimization. The remaining 12-weeks of treatment consisted of a maintenance phase. The study began with treating patients ≥9 years of age for one month before treating younger patients. Blood was collected for PK analysis on the first dosage day within one hour of the morning dose, and 30 minutes, and 1, 2, 3, and 4 hours post-dose. Subsequent blood sampling took place before the morning dose and 30 minutes post-dose. Blood samples were obtained at scheduled times for determining PK profile and Tmax, which is the time Cmax was reached. A patient's seizure frequency was recorded before and during the trial to calculate percent change from baseline.
The PK model parameters can be used as a tool to estimate PK and drug exposure in an individual or a population (such as with ELEKTRA), as well as to calculate individualized dosing based on covariates. For example, optimal daily dosing can be calculated using the area under the concentration time curve and clearance values (dose=targetAUC24×CL). Blood sampling at steady-state was limited in the ELEKTRA study, thus some of the PK parameters shown in Table 32 for the ELEKTRA population were simulated by interpolation.
The dots represent the simulation and the numbers below the dot represent the simulated covariate value, while the values above the dots show the percent change from the reference level. The vertical line labeled “ref” depicts the reference level. […] The CV % refers to the coefficient of variation assuming a log-normal distribution, derived as […], where σ denotes the standard deviation of the log-transformed values.
The term AUC(0-tau) stands for AUC to the end of the dosing period. The covariate effects were analyzed using exposure parameters AUC, Cmax, and Ctrough.

[3] = both, human, in vivo
Procedure: The study enrolled 48 subjects in the single rising dose study. Subjects were sorted into six cohorts and randomly assigned to treatment or placebo groups.
A prior study of soticlestat dosing in dogs guided the safety margin of minimal and maximal single dose selection for human subjects. An initial dosage of 10 mg provided a 44-fold safety margin relative to the maximum safe dosage in dogs. […] Each dose trial contained two placebo subjects. Ascending doses were tested in 2 sentinel subjects at a time to determine safety and tolerability before including the full cohort.
The mean values in table 6 with the superscript “a” were derived from n=3 subjects and values with superscript “b” were derived from n=4 subjects.

[4] = Eq. Dose 100 mg (N = 70), Median
[5] = Eq. Dose 100 mg (N = 70), Range
[6] = Eq. Dose 200 mg (N = 68), Median
[7] = Eq. Dose 200 mg (N = 68), Range
[8] = Eq. Dose 300 mg (N = 56), Median
[9] = Eq. Dose 300 mg (N = 56), Range
[10] = Equiv. Dose 100 mg BID, N = 70, Mean
[11] = Equiv. Dose 100 mg BID, N = 70, Median
[12] = Equiv. Dose 100 mg BID, N = 70, Range
[13] = Equiv. Dose 200 mg BID, N = 68, Mean
[14] = Equiv. Dose 200 mg BID, N = 68, Median
[15] = Equiv. Dose 200 mg BID, N = 68, Range
[16] = Equiv. Dose 300 mg BID, N = 56, Mean
[17] = Equiv. Dose 300 mg BID, N = 56, Median
[18] = Equiv. Dose 300 mg BID, N = 56, Range

## O=C(c1cccnc1-c1ccncc1)N1CCC(O)(Cc2ccccc2)CC1 [soticlestat]
[1]; 900 mg single dose, 16 hours post-dose
  maximum 24HC decrease: approximately 23%
[1]; single dose
  AUEC96 decrease compared to placebo: approximately 28.7%
[2]; Eq. Dose 100 mg (N = 70), Mean
  Avg. CFBL 24HC: −69.4%
  Max. CFBL 24HC: −69.6%
[2]; [4]
  Avg. CFBL 24HC: −70.8%
  Max. CFBL 24HC: −71%
[2]; [5]
  Avg. CFBL 24HC: −86.9-−42.2%
  Max. CFBL 24HC: −87-−42.6%
[2]; Eq. Dose 200 mg (N = 68), Mean
  Avg. CFBL 24HC: −78.6%
  Max. CFBL 24HC: −78.7%
[2]; [6]
  Avg. CFBL 24HC: −80.7%
  Max. CFBL 24HC: −80.8%
[2]; [7]
  Avg. CFBL 24HC: −89.7-−54.7%
  Max. CFBL 24HC: −89.8-−55%
[2]; Eq. Dose 300 mg (N = 56), Mean
  Avg. CFBL 24HC: −82%
  Max. CFBL 24HC: −82.1%
[2]; [8]
  Avg. CFBL 24HC: −84%
  Max. CFBL 24HC: −84.1%
[2]; [9]
  Avg. CFBL 24HC: −90.9-−64.1%
  Max. CFBL 24HC: −90.9-−64.4%
[2]; [10]
  Avg. Ch. f. BL. 24HC: −67.38%
  Max. Red. f. BL. 24HC: −67.65%
[2]; [11]
  Avg. Ch. f. BL. 24HC: −70.08%
  Max. Red. f. BL. 24HC: −70.39%
[2]; [12]
  Avg. Ch. f. BL. 24HC: −86.70-−10.05%
  Max. Red. f. BL. 24HC: −86.77-−10.19%
[2]; [13]
  Avg. Ch. f. BL. 24HC: −76.77%
  Max. Red. f. BL. 24HC: −76.97%
[2]; [14]
  Avg. Ch. f. BL. 24HC: −80.21%
  Max. Red. f. BL. 24HC: −80.37%
[2]; [15]
  Avg. Ch. f. BL. 24HC: −89.03-−18.58%
  Max. Red. f. BL. 24HC: −89.07-−18.80%
[2]; [16]
  Avg. Ch. f. BL. 24HC: −79.95%
  Max. Red. f. BL. 24HC: −80.11%
[2]; [17]
  Avg. Ch. f. BL. 24HC: −82.50%
  Max. Red. f. BL. 24HC: −82.65%
[2]; [18]
  Avg. Ch. f. BL. 24HC: −89.98-−23.43%
  Max. Red. f. BL. 24HC: −90.00-−23.69%
[3]
  number of TEAEs reported: 29 TEAEs
